The values that follow come from patent US20060084172A1, “Method for producing stem cells with increased developmental potential” (Julius-Maximilians-Unversitat Wurzburg, priority 2001, published 2006).

One experiment deals with Oct4 gene. As to the kind of experiment: Oct4-gene specific RT-PCR after incubation of neural stem cells. It is filed as cell-based, mouse. The note with it: 2-day incubation of neural stem cells (NSC #417, NSC #125); 150-250 nanomolar Trichostatin A and/or 300-600 nanomolar 5-aza-2′ deoxycytidine; HPRT normalization. As to the method: For investigating whether the incubation of adult neural stem cells of Example 1 with deacetylase inhibitors (e.g. Trichostatin A) and/or nucleotide analogs (e.g. 5-aza-2′ deoxycytidine), which prevent a methylation, influences the gene expression, the stem cells were incubated with one of these substances or a mixture of these substances. This was performed in Neurobasal medium, B27 supplement, 20-40 ng EGF, 20-40 ng FGF-2, 150-250 nanomolar Trichostatin A and/or 300-600 nanomolar 5-aza-2′ deoxycytidine for 2 or 4 days. Subsequently to the incubation, RNA was isolated from the cells, and cDNA was produced by means of the enzyme reverse transcriptase. By using gene-specific primers, the gene expression of the Oct4 gene was investigated. The Oct4 gene serves as an example of a development-specific regulator gene. It is only active in very early development stages (zygote, morula, blastula). Later, the expression is restricted to germ cells. The Oct4 gene is not transcribed in the adult organism outside the germ cells, thus also not in somatic stem cells. The Oct4 gene is thus only active in cells, which have a development potential larger than that of the somatic stem cells [see Pesce M, Anastassiedies K, Scholer H R (1999) Oct4: lessons of totipotency from embryonic stem cells. Cells Tissues Organs 165:144-152]. […] Under these conditions, no Oct4 expression was detected anymore. […]

For another experiment, the system named is mouse blastocysts. As to the kind of experiment: Injection of treated neural stem cells into blastocysts, Y chromosome-specific PCR of tissues of chimeric animals. The settings on record: treated neural stem cells injected into blastocysts, animals examined at 4 weeks, FIG. 4b versus untreated FIG. 4a. Format: in vivo. The text has this: In order to determine the plasticity of the employed somatic stem cell types, neural and hematopoietic stem cells of the Examples 1 and 2 were isolated and injected into mouse blastocysts (see FIG. 2). From the blastocyst develops the complete embryo and later the adult animal. By this method, the injected stem cells are subjected to all inductive processes, which take place during the development of the embryo. If the used hematopoietic or neural stem cells should have the capability to differentiate to all or many tissues or cell types of the adult animal, then descendants of the injected stem cells should be detectable for the developed animal in several different or all tissues and organs. If this detection is positive and the donor cells carry foreign, tissue-specific markers and perform foreign, tissue-specific functions, then the treatment of the somatic stem cells has led to an increased plasticity.
In order to investigate the development potential of somatic stem cells treated according to Example 4, neural stem cells of Example 4 (from male animals) were washed and injected (20-40 pieces) into blastocysts, which were isolated from superovulated females after object pairing. […] Male donor cells, which originate from the injected neural stem cells (NSC), were detected by a Y chromosome-specific PCR reaction (YMT primer). […]

Regarding `CC(/C=C/C(=O)NO)=C\[C@@H](C)C(=O)c1ccc(N(C)C)cc1` [Trichostatin A], the “Oct4 gene expression (RT-PCR)” value in the experiment on Oct4 gene is listed as “reactivates the Oct4 gene”. Besides, the “distribution spectrum of donor cells in tissues” value in the experiment with mouse blastocysts was “substantially wider distribution spectrum”.
